# According to patent publication US12048699B2, “Cancer treatment methods based on TP53 mutation status and hypermutation” (TAKEDA PHARMACEUTICAL COMPANY LIMITED, priority 2018, dated 2024):
# Experiments:
# [1] = tested on: human primary tumor xenograft models; experiment: phase 2-like preclinical study in human primary tumor xenograft (PDX) models, % ΔTGI response vs mutation status; assay type: in vivo, Balb/c nude mice; conditions: 77 PDX models, crystalline form A of Compound 1 hemihydrate, 60 mg/kg, Bid, po, 21 days, 3 days on 4 days off
# Source text: Compound 1 is an investigational drug under clinical development for cancer treatment. Compound 1 achieves anti-tumor effects by inhibiting Cdc7 kinase, which is involved in DNA replication and repair. Predictive biomarker identification was investigated using data derived from a phase 2-like preclinical study, that is human primary tumor xenograft models using Balb/c nude mice ([…], female, 6-8 weeks old, 18-22 g). For each model, 6 tumor bearing mice were randomized into 2 groups. Tumor fragments from seed mice inoculated with selected PDX tumors were harvested and used for inoculation into Balb/c nude mice. Each mouse was inoculated subcutaneously at the right flank with one tumor fragment (2-3 mm in diameter). The treatments were started when mean tumor size reached approximately 200-250 mm^3. Mice were dosed orally with either vehicle or Compound 1 (crystalline form A of Compound 1 hemihydrate, 60 mg/kg, Bid, po, 21 days, 3 days on 4 days off). TP53 mutation status and hypermutation status as measured by microsatellite instability/stability (MSI/MSS) status were identified as predictive biomarkers for cancer treatment with Compound 1.
# Whole exome sequencing (WES) and RNA sequencing (RNASeq) were done for 92 xenograft models whose cancer types are colon (n=40), pancreas (n=24), non-small cell lung (n=23), and ovary cancer (n=5).
# In this study, % ΔTGI (percent delta tumor growth inhibition) was used and its mathematical definition is as follows.
# In the above equation, Tt and T0 represent the sizes of tumor in treatment at time t and 0 and similarly Ct and C0 mean the sizes of tumor in control (vehicle) at the same time points t and 0. Therefore, a large % ΔTGI indicates a higher degree of tumor growth inhibition in treatment than in vehicle.
# Binary response was inferred by categorizing % ΔTGI, so that samples were classified as responders with high % ΔTGI and non-responders with low % ΔTGI. Chi-square test was run to evaluate the potential association between the class labels (responder vs. non-responder) and mutational status (MUT vs. WT). […]
# human hepatocytes = experiment: metabolism in human hepatocytes; assay type: in vitro ADME; conditions: metabolite structures shown in drawing 7
compound,measurement,setting,value
"Cc1[nH]ncc1-c1cc2nc([C@@H]3CC4CCN3CC4)[nH]c(=O)c2s1 [Compound 1, 2-[(2S)-1-azabicyclo[2.2.2]oct-2-yl]-6-(3-methyl-1H-pyrazol-4-yl)thieno[3,2-d]pyrimidin-4(3H)-one]","association of TP53 mutation with response (% ΔTGI, responder vs. non-responder)",[1]; Chi-square test / decision tree,most significantly associated with response
same,"association of CHD family genes mutation with response (% ΔTGI, responder vs. non-responder)",[1]; decision tree,associated with non-response
same,"association of hypermutation with response (% ΔTGI, responder vs. non-responder)",[1]; decision tree,associated with non-response
same,metabolism to metabolites,human hepatocytes,can be metabolized to compounds of the following structures
